In paper PMC9370283, “New Quinoxaline-Based Derivatives as PARP-1 Inhibitors: Design, Synthesis, Antiproliferative, and Computational Studies” (Molecules, 2022):

Tests used:
PARP-1 = biological target: T1, PARP-1 (Homo sapiens, UniProt P09874); test: colorimetric 96-well PARP-1 assay kit (BPS Bioscience); format: biochemical
T1 construct: purchased BPS Bioscience 80580

MDA-MB-436 cells [1] = test: Annexin V-FITC/PI apoptosis assay, flow cytometry; conditions: IC50 concentration, 48 h
Source text: medium was used as a negative control.
(§1) Mean net fluorescent intensities (NFI) were quantified.

WI-38 = test: cytotoxicity against normal cells, MTT assay, WI-38; format: cell-based; conditions: Homo sapiens, normal cell line, read-out: IC50 (mean ± SEM) WI-38
Procedure: It has been reported that the frequency and severity of the side effects on normal healthy cells at therapeutic levels are deemed to be critical factors that distinguish different anticancer drugs from each other. […]
to the wells designated as “Blank”. The amount of PARP-1 required for the assay was then calculated. The reaction was initiated by adding 20 µL of diluted PARP-1 en zy me to the wells designated “Positive Control” and “Test Inhibitor Control”. The strip wells were incubated at room temperature for 1 hou r. The strip wells were then wash ed three times with 200 µL of PBST buffer.
Then, 50 µL of 50 times diluted Streptavidin-HRP with blocking buffer was added to each well, and the strips were further incubated at room temperature for 30 min. After washing the wells three times with 200 µL of PBST buffer, HRP colorimetric substrate was added to each well, and the plate was incubated at room temperature until a blue color was developed in the positive control well. Then, the reaction was quenched with 100 µL per well of 2 M sulfuric acid. Carrier solvent (DMSO 5%, v/v) was used as a negative control. All compounds including Ol ap arib were t ested at 5 concentrations (100, 10, 1, 0.1, and 0.01 µM). The optical density (OD) of each well was measured spectrophotometrically at 450 nm with an ELISA microplate reader (ChroMate-4300, FL, USA). The IC50 values were calculated according to the equation for Boltzmann sigmoidal concentration-response curves using the nonlin ear regression fitting model (GraphPad Prism Version 8). All assays were performed in triplicate in 3 repeated experiments. The obtained data are presented as means standard error of the means from 3 independent repeats (n = 3).
4.3.In vitro anticancer screening
The cell lines were purchased from the American Type Culture collection as follows:
Breast Cancer cell lines (MDA-MB-436) and WI38. Cytotoxic activity screening was performed using MTT assay. Exponentially, cells were placed in 10^4 cells/ well for 24 h, and then add fresh med ium containing different concen trations of the tested sample. Serial two-fold dilutions of the tested sample were added using a multichannel pipette. Moreover, all cells were cultivated at 37 °C, with 5% CO2 and 95% humidity. Also, incubation of control cells occurred at 3 7 ° C . […] Rinse the wells using water until no stain. After that, add 30% g lacial acetic acid to all wells with shaking plates on a Microplate reader (TECAN, Inc.) to measure the absorbance, using a test wavelength of 490 nm. Besides, compare the treated samples with the control cell. The cytotoxicity was estimated by IC50 in (μg /mL), the concentration that inhibits 50% of the growth of the examined cell.

MDA-MB-436 cells [2] = test: cell cycle analysis, PI staining, flow cytometry; conditions: IC50 concentration 2.57 µM, 48 h
Source text: medium was used as a negative control.
as §1

MDA-MB-436 cells [3] = test: Cyto-ID autophagy assay, flow cytometry; conditions: IC50 value of compound, 24 h
Source text: medium was used as a negative control.
as §1

MDA-MB-436 = test: in vitro cytotoxicity, MTT assay, MDA-MB-436; conditions: for % viability MDA-MB-436: MTT lab report

T1 sequence (P09874 whole entry): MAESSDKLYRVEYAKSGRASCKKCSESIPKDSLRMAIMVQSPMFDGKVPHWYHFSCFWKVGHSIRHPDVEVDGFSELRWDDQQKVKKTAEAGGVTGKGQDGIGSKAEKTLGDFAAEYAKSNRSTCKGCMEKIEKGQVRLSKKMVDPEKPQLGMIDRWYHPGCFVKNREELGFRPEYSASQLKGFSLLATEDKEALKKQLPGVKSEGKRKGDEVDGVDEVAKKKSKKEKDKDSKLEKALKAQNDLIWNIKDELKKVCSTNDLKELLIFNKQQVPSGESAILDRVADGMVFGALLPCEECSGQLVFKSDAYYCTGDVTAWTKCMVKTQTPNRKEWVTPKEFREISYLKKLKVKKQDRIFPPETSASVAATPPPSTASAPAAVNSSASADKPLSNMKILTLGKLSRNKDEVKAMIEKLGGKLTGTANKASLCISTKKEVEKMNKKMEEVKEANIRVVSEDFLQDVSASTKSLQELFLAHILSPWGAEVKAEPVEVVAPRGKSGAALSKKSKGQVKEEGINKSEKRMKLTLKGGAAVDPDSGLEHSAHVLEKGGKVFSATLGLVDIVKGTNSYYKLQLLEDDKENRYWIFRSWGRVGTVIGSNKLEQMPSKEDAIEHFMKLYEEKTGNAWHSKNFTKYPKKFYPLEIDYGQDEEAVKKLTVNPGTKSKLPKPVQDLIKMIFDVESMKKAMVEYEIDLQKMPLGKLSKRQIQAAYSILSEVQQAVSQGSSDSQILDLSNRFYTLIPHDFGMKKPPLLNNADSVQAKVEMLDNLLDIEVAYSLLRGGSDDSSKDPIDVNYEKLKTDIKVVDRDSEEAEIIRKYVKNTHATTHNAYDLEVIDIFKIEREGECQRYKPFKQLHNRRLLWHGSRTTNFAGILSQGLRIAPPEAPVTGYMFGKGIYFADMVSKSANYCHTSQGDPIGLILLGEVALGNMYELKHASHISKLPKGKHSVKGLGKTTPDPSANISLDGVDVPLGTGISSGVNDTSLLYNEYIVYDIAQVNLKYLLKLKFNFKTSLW

Cc1cc(C)n(S(=O)(=O)c2ccc3[nH]c(=O)c(=O)[nH]c3c2)n1 [Compound 5, 6-((3,5-Dimethyl-1H-pyrazol-1-yl)sulfonyl)-1,4-dihydroquinoxaline-2,3-dione]
fold higher PARP-1 inhibitory activity than Olaparib (PARP-1; ratio of IC50 values): 1.5 fold
IC50 (PARP-1; read-out: IC50 (mean ± SEM) PARP-1): 3.05 ± 0.16 nM
normal intact cells (Q2-3) (MDA-MB-436 cells [1]): 96.98%
early apoptotic cell population (Q2-4) (MDA-MB-436 cells [1]; control 0.14%): 0.27%
late apoptotic cell population (Q2-2) (MDA-MB-436 cells [1]; control 0.98%): 1.02%
necrotic cell population (Q2-1) (MDA-MB-436 cells [1]; control 1.11%): 1.72%
IC50 (WI-38): 81700 ± 1700 nM
cell number in sub-G1 stage (MDA-MB-436 cells [2]; control 1.76%): 1.66%
percentage of cells in G2 stage (MDA-MB-436 cells [2]; control 25.12%): 30.39%
cell distribution in G1 phase (MDA-MB-436 cells [2]; control 51.96%): 40.89%
increase of autophagic cell death (MDA-MB-436 cells [3]): 68.65%
SI (MDA-MB-436; MDA-MB-436, matches IC50 WI-38 / IC50 MDA-MB-436): 31.77
% viability MDA-MB-436 (MDA-MB-436; log conc. 0.193 (1.6uM)): 53.46%
% viability MDA-MB-436 (MDA-MB-436; log conc. 0.796 (6.3uM)): 45.17%
% viability MDA-MB-436 (MDA-MB-436; log conc. 1.398 (25uM)): 37.05%
% viability MDA-MB-436 (MDA-MB-436; log conc. 2 (100uM)): 28.36%
% viability MDA-MB-436 (MDA-MB-436; log conc. -0.409 (0.4uM)): 60.26%
IC50 (MDA-MB-436; read-out: IC50 (mean ± SEM) MDA-MB-436, mutant BRCA1 breast cancer cells, MTT): 2570 ± 150 nM
times more potent than the reference drug (antiproliferative, MDA-MB-436) (MDA-MB-436; versus Olaparib): approximately 4 times
